Measurements taken from patent US4568765A, “Isoprenylamine derivatives” (priority 1981, dated 1986).
Like-named read-outs stand apart in the source and are kept apart here.

What was measured:
[1] = test system: human interferon; normal diploid cells (fibroblast); test: Human interferon inducing activity (in vitro), 3H-uridine-uptake inhibition; type: cell-based; conditions: 25 n molar suspension, radioisotope microassay
Protocol: Interferon was induced according to the method of Edward A. Havell et al. by treating normal diploid cells (fibroblast) originated from human being with each test compound (in the form of ethanol solution diluted with PBS (-), 25 n molar suspension). Using the radioisotope microassay method of H. Ishitsuka et al., interferon was measured in terms of 3H-uridine-uptakeinhibition rate.

[2] = Toxicity (50% lethal dose, intravenous); type: in vivo; conditions: ddY male mice 20-25 g
Text: Using ddY male mice weighing 20-25 g, 50% lethal dose of each test compound when intravenously administered was obtained, the results of which are shown in Table 6.

vaccinia virus [3] = type: in vivo; conditions: ICR female mice; 50 mg/kg intraperitoneally 24 hours before i.v. virus inoculation; lesions counted on 8th day; against surfactant solution group
tumor cells KN7 -8 = test: Anti-tumor activity (survivors on the 30th day); type: in vivo; conditions: survivors/group of 6 Balb/c male mice, 5×10^5 KN7 -8 cells i.p., 30 mg/kg i.p. 24 hours before and on 2nd and 5th day after inoculation
Protocol: Groups, each consisting of 6 Balb/c male mice weighing about 20 g, were intraperitoneally administered 5×10^5 of tumor cells KN7 -8. Each test compound suspended in a surfactant solution was intraperitoneally administered (each time at a rate of 30 mg/kg) to the mice 24 hours before inoculation of the tumor cells and on the second day and the fifth day after the inoculation, totalling 3 times, and the anti-tumor activity was evaluated in terms of number of survivors on the 30th day after the inoculation.

vaccinia virus [4] = type: cell-based; conditions: vero cells; 50 n molar concentration

## CC(C)=CCCC(C)=CCCC(C)=CCCC(C)=CCCC(C)=CCCC(C)=CCCC(C)=CCCC(C)=CCCC(C)=CCCC(C)=CCN(CCN(CCN(CCNCc1ccccc1)Cc1ccccc1)Cc1ccccc1)Cc1ccccc1
[1]
  Human interferon (in vitro) 3H-uridine-uptake inhibition rate %: 23.2%

## CCNCCN(CC)CCN(CC)CCN(CC)CC=C(C)CCCC(C)CCCC(C)CCCC(C)C (stereo not shown)
[2]; mouse, in vivo, iv, read-out: LD50
  LD50: 34 mg/kg

## CC(C)=CCCC(C)=CCCC(C)=CCCC(C)=CCCC(C)=CCCC(C)=CCCC(C)=CCCC(C)=CCCC(C)=CCCC(C)=CCNCCNCCNCCN [drawing 16]
Vaccinia virus [3]
  Prevention from vaccinia infection (Pock inhibition rate %): 87.9%

## CC(C)=CCCC(C)=CCCC(C)=CCCC(C)=CCCC(C)=CCCC(C)=CCCC(C)=CCCC(C)=CCCC(C)=CCCC(C)=CCNCCNCCN [drawing 17]
Vaccinia virus [3]
  Prevention from vaccinia infection (Pock inhibition rate %): 51.9%

## CC(C)=CCCC(C)=CCCC(C)=CCCC(C)=CCCC(C)=CCCC(C)=CCCC(C)=CCCC(C)=CCCC(C)=CCNCCNCCNCCN [drawing 18]
Vaccinia virus [3]
  Prevention from vaccinia infection (Pock inhibition rate %): 76.1%

## CC(C)=CCCC(C)=CCCC(C)=CCCC(C)=CCCC(C)=CCCC(C)=CCCC(C)=CCCC(C)=CCCC(C)=CCCC(C)=CCNCCNCCNCCN [drawing 19]
Tumor cells KN7 -8
  Anti-tumor activity (Survivor on the 30th day): 5/6

## CC(C)=CCCC(C)=CCCC(C)=CCCC(C)=CCCC(C)=CCCC(C)=CCCC(C)=CCCC(C)=CCCC(C)=CCCC(C)=CCNCCNCCN [drawing 20]
Tumor cells KN7 -8; 30 mg/kg
  Anti-tumor activity (Survivor on the 30th day): 1/6

## CC(C)=CCCC(C)=CCCC(C)=CCCC(C)=CCCC(C)=CCCC(C)=CCCC(C)=CCCC(C)=CCCC(C)=CCNCCNCCNCCN [drawing 21]
Tumor cells KN7 -8
  Anti-tumor activity (Survivor on the 30th day): 3/6

## CC(C)=CCCC(C)=CCCC(C)=CCCC(C)=CCCC(C)=CCCC(C)=CCCC(C)=CCCC(C)=CCCC(C)=CCCC(C)=CCNCCNCCN [drawing 22]
Tumor cells KN7 -8; 30 mg/kg
  Anti-tumor activity (Survivor on the 30th day): 2/6

## CC(C)=CCCC(C)=CCCC(C)=CCCC(C)=CCCC(C)=CCCC(C)=CCCC(C)=CCCC(C)=CCCC(C)=CCCC(C)=CCNCCNCCN [drawing 24]
[1]
  Human interferon (in vitro) 3H-uridine-uptake inhibition rate %: 15.1%

## CC(C)=CCCC(C)=CCCC(C)=CCCC(C)=CCCC(C)=CCCC(C)=CCCC(C)=CCCC(C)=CCCC(C)=CCCC(C)=CCNCCNCCNCCN [drawing 25]
Vaccinia virus [4]
  Anti-vaccinia virus activity (in vitro) (Plaque inhibition rate %): 44.5%

## CC(C)=CCCC(C)=CCCC(C)=CCCC(C)=CCCC(C)=CCCC(C)=CCCC(C)=CCCC(C)=CCCC(C)=CCCC(C)=CCNCCNCCNCCN [drawing 27]
[2]
  LD50: 57 mg/kg

## CC(C)=CCCC(C)=CCCC(C)=CCCC(C)=CCCC(C)=CCCC(C)=CCCC(C)=CCCC(C)=CCCC(C)=CCCC(C)=CCNCCNCCNCCN [drawing 28]
[2]
  LD50: 21 mg/kg
